Reference: the supplement of paper PMC11208160

Assay: recombinant barcode read abundance after kanamycin selection (control-corrected) (log10(CPM+1)); higher = more efficient recombination; sequences stand for … in AGTGCAGAGAAAATCGGCCAGTTTTCTCTGCCTGCAGTCCGCATGCCGT…AGATTTATGCAGCGGACTGCCTTTCTCCCAAAGTGATAAACCGGACAGTATCATGGACCGGTTTTCCCGGTAATCCGTATTTGCAAGGTTGGTTTCACT; site = the 11-nt target
How it was run: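 Reported as log10(CPM+1), each value stands for recombination efficiency. That efficiency is the averaged, control-corrected counts per million of barcodes found at recombinant junctions. Cells from a pooled E. coli library pairing targets with IS621 bridge RNA target-binding loops were plated twice on chloramphenicol/ampicillin LB agar (control) and twice on chloramphenicol/ampicillin/kanamycin with 0.1 mM IPTG.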
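Also: IS621 recombinase and bridge RNA in Escherichia coli cells.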

Point of comparison: “CCTACACCTTGGGTTCTAACCTGTTGCCT (site CCTACAACTAG)”, “recombinant barcode read abundance (log10)” value 0.0638. Against it:
- CCGAGAGCTTGGGTTCTAACCTGTTGCCT (site CAGAGAGCTAG) — within 0.2 log units, 0.0908
- CCGAGAGCTTGGGTTCTAACCTGTTGCCT (site CCGAGAGCTAG) — higher, 0.454
- CCGAGAGCTTGGGTTCTAACCTGTTGCCT (site CGGAGAGCTAG) — within 0.2 log units, 0.0785
- CCGAGAGCTTGGGTTCTAACCTGTTGCCT (site CTGAGAGCTAG) — within 0.2 log units, 0.0419
- CCGCATGCTTGGGTTCTAACCTGTTGCCT (site CCGAATGCTAG) — within 0.2 log units, 0.0372
- CCGCATGCTTGGGTTCTAACCTGTTGCCT (site CCGCATGCTAG) — within 0.2 log units, 0.234
- CCGCATGCTTGGGTTCTAACCTGTTGCCT (site CCGGATGCTAG) — within 0.2 log units, 0.0172
- CCGCATGCTTGGGTTCTAACCTGTTGCCT (site CCGTATGCTAG) — within 0.2 log units, 0.0765
- CCGCCTCCTTGGGTTCTAACCTGTTGCAT (site CCGCCTCCTAT) — within 0.2 log units, 0.0412
- CCGCCTCCTTGGGTTCTAACCTGTTGCAT (site CGTCCTCCTAT) — within 0.2 log units, 0.26
- CCGCGGACTTGGGTTCTAACCTGTTGCTA (site CCGCGGACTTA) — higher, 0.989
- CCGCGGACTTGGGTTCTAACCTGTTGCTA (site TAAAACCCTAT) — within 0.2 log units, 0.0107
- CCGCGGACTTGGGTTCTAACCTGTTGCTT (site CCGCAGACTAA) — within 0.2 log units, 0.106
- CCGCGGACTTGGGTTCTAACCTGTTGCTT (site CCGCGGACTAA) — higher, 0.578
- CCGGCCACTTGGGTTCTAACCTGTTGCCT (site CAGGCCACTAG) — higher, 0.359
- CCGGCCACTTGGGTTCTAACCTGTTGCCT (site CCGGCCACTAG) — higher, 1.82
- CCGGCCACTTGGGTTCTAACCTGTTGCCT (site CGGGCCACTAG) — within 0.2 log units, 0.164
- CCGGCCACTTGGGTTCTAACCTGTTGCCT (site CTGGCCACTAG) — within 0.2 log units, 0.155
- CCGGGATCTTGGGTTCTAACCTGTTGCCT (site ACGGGATCTAG) — higher, 0.323
- CCGGGATCTTGGGTTCTAACCTGTTGCCT (site CCGGGATCTAG) — higher, 1.22
- CCGGGATCTTGGGTTCTAACCTGTTGCCT (site GCGGGATCTAG) — within 0.2 log units, 0.161
- CCGGGATCTTGGGTTCTAACCTGTTGCCT (site TCGGGATCTAG) — within 0.2 log units, 0.231
- CCGGGTACTTGGGTTCTAACCTGTTGCCG (site AGCAACCCTTT) — within 0.2 log units, 0.0127
- CCGGGTACTTGGGTTCTAACCTGTTGCCG (site CCGGGTACTCG) — higher, 1.66
- CCGGTGACTTGGGTTCTAACCTGTTGCCT (site ACGGTGACTAG) — within 0.2 log units, 0.0889
- CCGGTGACTTGGGTTCTAACCTGTTGCCT (site CCGGTGACTAG) — higher, 0.743
- CCGGTGACTTGGGTTCTAACCTGTTGCCT (site GCGGTGACTAG) — within 0.2 log units, 0.146
- CCGGTGACTTGGGTTCTAACCTGTTGCCT (site TCGGTGACTAG) — within 0.2 log units, 0.0596
- CCGGTTGCTTGGGTTCTAACCTGTTGCCT (site CCGGATTCTAG) — within 0.2 log units, 0.0357
- CCGGTTGCTTGGGTTCTAACCTGTTGCCT (site CCGGTTGCTAG) — higher, 2.76
- CCGTCTACTTGGGTTCTAACCTGTTGCTT (site CCGTCTACTAA) — within 0.2 log units, 0.107
- CCGTCTACTTGGGTTCTAACCTGTTGCTT (site CCGTCTACTCA) — higher, 0.457
- CCGTCTACTTGGGTTCTAACCTGTTGCTT (site CCGTCTACTGA) — within 0.2 log units, 0.0444
- CCGTCTACTTGGGTTCTAACCTGTTGCTT (site CCGTCTACTTA) — within 0.2 log units, 0.201
- CCGTGAACTTGGGTTCTAACCTGTTGCCT (site CAGTGAACTAG) — within 0.2 log units, 0.0153
- CCGTGAACTTGGGTTCTAACCTGTTGCCT (site CCGTGAACTAG) — higher, 0.275
- CCGTGAACTTGGGTTCTAACCTGTTGCCT (site CGGTGAACTAG) — within 0.2 log units, 0.0382
- CCGTGAACTTGGGTTCTAACCTGTTGCCT (site CTGTGAACTAG) — within 0.2 log units, 0.163
- CCGTGGACTTGGGTTCTAACCTGTTGCCA (site CAGGGGACTTG) — within 0.2 log units, 0.111
- CCGTGGACTTGGGTTCTAACCTGTTGCCA (site CCGTGGACTTG) — higher, 0.42
- CCTAAACCTTGGGTTCTAACCTGTTGCGT (site CCTAAACCTAC) — higher, 1.63
- CCTAAACCTTGGGTTCTAACCTGTTGCGT (site CCTAACCCTAC) — within 0.2 log units, 0.0278
- CCTAAACCTTGGGTTCTAACCTGTTGCGT (site CCTAAGCCTAC) — within 0.2 log units, 0.03
- CCTAAACCTTGGGTTCTAACCTGTTGCGT (site CCTAATCCTAC) — within 0.2 log units, 0.0605
- CCTAACACTTGGGTTCTAACCTGTTGCCT (site ACTAACACTAG) — within 0.2 log units, 0.0635
- CCTAACACTTGGGTTCTAACCTGTTGCCT (site CCTAACACTAG) — higher, 0.501
- CCTAACACTTGGGTTCTAACCTGTTGCCT (site GCTAACACTAG) — within 0.2 log units, 0.0372
- CCTAACACTTGGGTTCTAACCTGTTGCCT (site TCTAACACTAG) — within 0.2 log units, 0.114
- CCTACACCTTGGGTTCTAACCTGTTGCCT (site CCTACACCTAG) — higher, 0.928
- CCTACACCTTGGGTTCTAACCTGTTGCCT (site CCTACAGCTAG) — within 0.2 log units, 0.0384
- CCTACACCTTGGGTTCTAACCTGTTGCCT (site CCTACATCTAG) — higher, 0.52
- CCTAGACCTTGGGTTCTAACCTGTTGCCT (site CCTAGAACTAG) — within 0.2 log units, 0.067
- CCTAGACCTTGGGTTCTAACCTGTTGCCT (site CCTAGACCTAG) — higher, 0.771
- CCTAGACCTTGGGTTCTAACCTGTTGCCT (site CCTAGAGCTAG) — within 0.2 log units, 0.201
- CCTAGACCTTGGGTTCTAACCTGTTGCCT (site CCTAGATCTAG) — higher, 0.312
- CCTAGCACTTGGGTTCTAACCTGTTGCGA (site CCTAGCACTTC) — higher, 0.939
- CCTAGCACTTGGGTTCTAACCTGTTGCGA (site CCTCGCACTTC) — within 0.2 log units, 0.0896
- CCTAGCACTTGGGTTCTAACCTGTTGCGA (site CCTGGCACTTC) — within 0.2 log units, 0.0943
- CCTAGCACTTGGGTTCTAACCTGTTGCGA (site CCTTGCACTTC) — within 0.2 log units, 0.0494
- CCTATAGCTTGGGTTCTAACCTGTTGCTT (site CCTATAGCTAA) — within 0.2 log units, 0.0878
- CCTATAGCTTGGGTTCTAACCTGTTGCTT (site GAGTCTACTTG) — within 0.2 log units, 0.0203
- CCTCAGGCTTGGGTTCTAACCTGTTGCCT (site CCTCAGGCTAG) — within 0.2 log units, 0.106
- CCTCAGGCTTGGGTTCTAACCTGTTGCCT (site CCTCAGGCTCG) — within 0.2 log units, 0.0672
- CCTCAGGCTTGGGTTCTAACCTGTTGCCT (site CCTCAGGCTGG) — within 0.2 log units, 0.107
- CCTCAGGCTTGGGTTCTAACCTGTTGCCT (site CCTCAGGCTTG) — within 0.2 log units, 0.204
- CCTCAGTCTTGGGTTCTAACCTGTTGCTT (site CCTCAATCTAA) — higher, 0.441
- CCTCAGTCTTGGGTTCTAACCTGTTGCTT (site CCTCACTCTAA) — within 0.2 log units, 0.0235
- CCTCAGTCTTGGGTTCTAACCTGTTGCTT (site CCTCAGTCTAA) — higher, 1.68
- CCTCAGTCTTGGGTTCTAACCTGTTGCTT (site CCTCATTCTAA) — within 0.2 log units, 0.122
- CCTCGAGCTTGGGTTCTAACCTGTTGCGG (site CCTCGAGCTCC) — higher, 1.86
- CCTCGAGCTTGGGTTCTAACCTGTTGCGG (site TCTAGAGCTCC) — within 0.2 log units, 0.184
- CCTCGCACTTGGGTTCTAACCTGTTGCGA (site CCTAGCACTTC) — within 0.2 log units, 0.126
- CCTCGCACTTGGGTTCTAACCTGTTGCGA (site CCTCGCACTTC) — within 0.2 log units, 0.112
- CCTCGCACTTGGGTTCTAACCTGTTGCGA (site CCTGGCACTTC) — within 0.2 log units, 0.0155
- CCTCGCACTTGGGTTCTAACCTGTTGCGA (site CCTTGCACTTC) — within 0.2 log units, 0.0861
- CCTCGCGCTTGGGTTCTAACCTGTTGCCT (site CCTAACGCTAG) — higher, 0.822
- CCTCGCGCTTGGGTTCTAACCTGTTGCCT (site CCTCGCGCTAG) — higher, 0.354
- CCTCGGACTTGGGTTCTAACCTGTTGCAT (site CATCGTACTAT) — within 0.2 log units, 0.0825
- CCTCGGACTTGGGTTCTAACCTGTTGCAT (site CCTCGGACTAT) — higher, 1.59
- CCTGATTCTTGGGTTCTAACCTGTTGCCT (site CCTGAATCTAG) — within 0.2 log units, 0.0629
- CCTGATTCTTGGGTTCTAACCTGTTGCCT (site CCTGACTCTAG) — within 0.2 log units, 0.113
- CCTGATTCTTGGGTTCTAACCTGTTGCCT (site CCTGAGTCTAG) — within 0.2 log units, 0.107
- CCTGATTCTTGGGTTCTAACCTGTTGCCT (site CCTGATTCTAG) — higher, 0.322
- CCTGGACCTTGGGTTCTAACCTGTTGCTT (site CCTGGACCTAA) — higher, 1.87
- CCTGGACCTTGGGTTCTAACCTGTTGCTT (site CCTGGTCCTAT) — within 0.2 log units, 0
